Measured values as given in patent publication US20260062422A1 (Halda Therapeutics OpCo, Inc., priority 2022, published 2026).

Key:
[1] = test system: T-Rex 293 cell line SC3 cells lacking increased expression of androgen receptor protein; assay: Cellular growth inhibition, T-Rex 293 SC3 cells without doxycycline, CellTiter-Glo; assay type: cell-based; details: 72 h, T-Rex 293 SC3 cells not exposed to doxycycline, CellTiter-Glo 2.0
In short: (§1)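 GI50 came from a four-parameter fit of CellTiter-Glo 2.0 luminescence after 72 h compound exposure (0.5% DMSO, 37 °C), dosing 24 h post-seeding. SC3 clone cells (2500/well), transfected with wild-type androgen receptor, grew in charcoal-stripped serum medium lacking phenol red, induced with 10 ng/mL doxycycline or left uninduced.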

[2] = test system: T-Rex 293 cell line SC3 cells having increased expression of androgen receptor protein due to exposure to doxycycline; assay: Cellular growth inhibition, T-Rex 293 SC3 cells with doxycycline (androgen receptor induced), CellTiter-Glo; assay type: cell-based; details: 72 h, T-Rex 293 SC3 cells with 10 ng/mL doxycycline (increased androgen receptor expression)
In short: as §1

VCaP cells = assay: Cellular growth inhibition assay for VCaP cells, CellTiter-Glo; assay type: cell-based, human; details: Homo sapiens, VCaP, 72 h, 72 hours treatment, CellTiter-Glo 2.0
In short: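 GI50 values come from four-parameter curve fits of luminescence data normalized to a zero baseline. Compound, in medium with 0.5% DMSO, was added one day after plating and left for 72 h before CellTiter-Glo 2.0 addition.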

T47D cells = assay: Cellular growth inhibition assay for T47D cells, CellTiter-Glo; assay type: cell-based, human; details: Homo sapiens, T47D, 72 h, 72 hours treatment, CellTiter-Glo 2.0 cell viability
In short: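 Growth inhibition as GI50, fitted with four parameters to CellTiter-Glo luminescence after 72 h of compound exposure (0.5% DMSO). Cells were T47D, grown in insulin-supplemented (0.2 units/mL) DMEM with 10% FBS and treated one day post-seeding.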

GI50 (VCaP cells) [µM]	GI50 (T47D cells) [µM]	Compound	GI50 [1] [µM]	GI50 [2] [µM]
> 3	> 3	Cc1noc2c1-c1ccccc1C(c1ccc(OC3CC4(C3)CN(c3ncc(C(=O)N[C@H]5C(C)(C)[C@H](Oc6ccc(C#N)c(Cl)c6)C5(C)C)cn3)CCO4)cc1)=N[C@H]2Cc1ncco1 [Compound I-221, N-[3-(3-chloro-4-cyano-phenoxy)-2,2,4,4-tetramethyl-cyclobutyl]-2-[2-[4-[(4S)-1-methyl-4-(oxazol-2-ylmethyl)-4H-isoxazolo[5,4-d][2]benzazepin-6-yl]phenoxy]-5-oxa-8-azaspiro[3.5]nonan-8-yl]pyrimidine-5-carboxamide]	> 3	< 0.5
< 0.5	> 3	Cc1noc2c1-c1ccccc1C(c1ccc(OC3CC4(CCN(c5ncc(C(=O)N[C@H]6C(C)(C)[C@H](Oc7ccc(C#N)c(Cl)c7)C6(C)C)cn5)CC4)C3)cc1)=N[C@H]2Cc1ncco1 [Compound I-222]	> 3	< 0.5
> 3	> 3	Cc1noc2c1-c1ccccc1C(c1ccc(O[C@H]3C[C@]4(CN(c5ncc(C(=O)N[C@H]6C(C)(C)[C@H](Oc7ccc(C#N)c(Cl)c7)C6(C)C)cn5)CCO4)C3)cc1)=N[C@H]2Cc1ncco1 [Compound I-223]	> 3	< 0.5
< 0.5	> 3	Cc1noc2c1-c1ccccc1C(c1ccc(O[C@H]3C[C@]4(CN(c5ncc(C(=O)N[C@H]6C(C)(C)[C@H](Oc7ccc(C#N)c(Cl)c7)C6(C)C)cn5)CCO4)C3)cc1)=N[C@@H]2Cc1ncco1 [Compound I-224]	> 3	< 0.5
1.5 to 3	0.5 to 1.5	Cc1sc2c(c1C)C(c1ccc(C=C3CC4(CCCN(c5ncc(C(=O)N[C@H]6C(C)(C)[C@H](Oc7ccc(C#N)c(Cl)c7)C6(C)C)cn5)C4)C3)cc1)=N[C@@H](Cc1ncco1)c1nnc(C)n1-2 [Compound I-225, N-[3-(3-chloro-4-cyano-phenoxy)-2,2,4,4-tetramethyl-cyclobutyl]-2-[2-[[4-[(9S)-4,5,13-trimethyl-9-(oxazol-2-ylmethyl)-3-thia-1,8,11,12-tetrazatricyclo[8.3.0.02,6]trideca-2(6),4,7,10,12-pentaen-7-yl]phenyl]methylene]-6-azaspiro[3.5]nonan-6-yl]pyrimidine-5-carboxamide]	0.5 to 1.5	< 0.5
< 0.5	> 3	Cc1sc2c(c1C)C(c1ccc(OC3CC4(CCN(c5ncc(C(=O)N[C@H]6C(C)(C)[C@H](Oc7ccc(C#N)c(Cl)c7)C6(C)C)cn5)CC4)C3)cc1)=N[C@@H](CC#N)c1nnc(C)n1-2 [Compound I-229, N-[3-(3-chloro-4-cyano-phenoxy)-2,2,4,4-tetramethyl-cyclobutyl]-2-[2-[4-[(9S)-9-(cyanomethyl)-4,5,13-trimethyl-3-thia-1,8,11,12-tetrazatricyclo[8.3.0.02,6]trideca-2(6),4,7,10,12-pentaen-7-yl]phenoxy]-7-azaspiro [3.5]nonan-7-yl]pyrimidine-5-carboxamide]	> 3	< 0.5
< 0.5	> 3	Cc1sc2c(c1C)C(c1ccc(OC3CC4(CCN(c5ncc(C(=O)N[C@H]6C(C)(C)[C@H](Oc7ccc(C#N)c(Cl)c7)C6(C)C)cn5)CC4)C3)cc1)=N/C(=C/c1ncco1)c1nnc(C)n1-2 [Compound I-230, N-[3-(3-chloro-4-cyano-phenoxy)-2,2,4,4-tetramethyl-cyclobutyl]-2-[2-[4-[(9E)-4,5,13-trimethyl-9-(oxazol-2-ylmethylene)-3-thia-1,8,11,12-tetrazatricyclo[8.3.0.02,6]trideca-2(6),4,7,10,12-pentaen-7-yl]phenoxy]-7-azaspiro[3.5]nonan-7-yl]pyrimidine-5-carboxamide]	> 3	< 0.5
